Assay results from patent US20150159169A1, “Plants Tolerant to HPPD Inhibitor Herbicides” (Bayer CropScience AG, priority 2009, published 2015).

How the values were obtained:
[1] = biological target: Kordia algicida HPPD "SEQ ID No. 5" (FMP27e) (Kordia algicida, UniProt A9DQF2); assay: HPLC assay of HPPD in vitro kinetic properties; assay type: biochemical
Procedure: Km, Vmax, and kcat values for different HPPD enzyme preparations and Ki, K1=Kon, and K−1=Koff for different HPPD inhibitors were determined using a HPLC assay for measurements of HPPD activity. […] All assays were started by the addition of HPPD enzyme to the assay mixture and stopped at a series of times between 0 and 240 s by addition of 200 μl of the reaction mixture to reaction assay tubes containing 20 μl 10% perchloric acid. Precipitated protein was pelleted by a 5 minute centrifugation at 10,000 g.
For Km and Vmax value determinations the initial rates of the HPPD reaction at different substrate concentrations were determined from plots of HGA formed versus time and fitted to the Michaelis-Menten equation for unireactant enzymes using the ID Business Solutions Ltd. (idbs.com) XLfit software suite.

[2] = system: tobacco calli containing SEQ ID No. 11 (Arabidopsis thaliana HPPD); assay: Rooting of calli on tembotrione media; assay type: cell-based, Nicotiana tabacum; details: 6 to 12 weeks, calli with SEQ ID No. 11
Procedure: (§1) The leaf disks were co-cultivated for 2 days with Agrobacterium tumefaciens cells containing either the binary vector FMP27ebv or AtHPPDbv. Then the leaf disks were transferred to a media allowing the regeneration of shoots for 6 weeks on MS (Musharige and Skoog, (1962), Physiol Plant 15(3): 473-497) media supplemented with BAP (1 mg/mL; Benzylaminopurine), carbenicillin (250 mg/mL), cefotaxine (250 mg/mL), kanamycin (75 mg/mL) and tembotrione (10^−6 M)
(§2) Regenerated calli were transferred on media to induce the development of roots for 6 to 12 weeks: MS (1/2), supplemented with carbenicillin (250 mg/mL), cefotaxine (250 mg/mL), kanamycin (75 mg/mL), and tembotrione (10^−6 M).
(§3) Regenerated shoot calli from a cell transformed with a nucleic acid sequence encoding an HPPD comprising SEQ ID No. 11 (Arabidopsis thaliana) or SEQ ID No. 7 (Kordia algicida) were transferred to a media inducing root growth which media was further supplemented with the HPPD inhibitor tembotrione for 6 to 12 weeks.

[3] = system: tobacco calli containing SEQ ID No. 7 (Kordia algicida HPPD); assay: Rooting of calli on tembotrione media; assay type: cell-based, Nicotiana tabacum; details: 6 to 12 weeks, calli with SEQ ID No. 7
Procedure: as §1, §2, §3

[4] = system: T0 tobacco plants expressing the FMP27 HPPD (FMP27t); assay: Greenhouse response of T0 tobacco plants to tembotrione; assay type: in vivo, Nicotiana tabacum; details: 100 g AI/ha, two weeks after treatment
Procedure: As an example, rooted plants containing the T-DNA PromCaMV35S-OTP-HIS6-FMP27t-TerCaMV35S, were transferred to the greenhouse under standard growth conditions. Following a period of acclimation of two weeks, the T0 plants were treated with a mixture containing 100 g tembotrione/ha prepared from a WP20 (wettable powder 20%) formulation supplemented with ammonium sulfate and methyl ester raps oil. Two weeks after the treatment, the symptoms due to the application of the herbicides were evaluated. The plants were classified in four categories. The treated plants evaluated as “0” are looking like the untreated tobacco plants. The plants evaluated as “1” display temporarily light bleaching phenotype due to the application of the herbicides. The plants evaluated as “2” display permanent light to strong bleaching symptoms. Finally the plants evaluated as “3” are looking like wild type tobacco plants submitted to the same treatment.

[5] = system: tobacco plants containing FMP27t-h, PAT and 2mEPSPS (pFCO116); assay: Glasshouse response of three-tolerance-gene tobacco to herbicides, injury classes; assay type: in vivo, Nicotiana tobacum; details: 100 g AI/ha, 9 DAT
Procedure: A binary vector for tobacco transformation is, for example, constructed with the CaMV35 promoter driving the expression of the gene FMP27t-h (SEQ ID No. 15), with a codon usage optimized for the expression in dicotyledoneous plants and at its 5′extremity was added a sequence coding for an OTP, and further upstream a sequence TEV (Tobacco etch virus) to improve the stability of the mRNA in plants followed by the CaMV35S terminator. The nucleotide sequence of the gene FMP27t-h is given in SEQ ID No. 15. Additionally, the transformation vector also contains a PAT gene cassette in which the gene is driven by a CaVM35S promoter and followed by a CaMV35S terminator for glufosinate based selection during the transformation process and a 2mEPSPS gene cassette in which the gene is driven by an histone promoter from Arabidopsis to confer tolerance to the herbicide glyphosate to the transformed plants (see FIG. 3 H). The binary vector was called pFCO116. The above vector was used to transform leaf disc obtained from Nicotiana tobacum plants, according to Example 3.
Transgenic tobacco plants were transferred to the greenhouse and treated with glyphosate at a rate of 1121 g AI/ha. Seeds were produced from such tolerant tobacco plants and harvested. These seeds were put on soil to germinate in the glasshouse. Three to four weeks later, 50 plantlets per event were transferred to single pots. Two weeks later, plants of a size 4-6 cm were sprayed either with
[…] […] Non-transgenic tobacco plants were completely killed by treatment using one or more of the above herbicides.

Kordia algicida HPPD "SEQ ID No. 5" (FMP27e), sequence (A9DQF2 entry or part of it): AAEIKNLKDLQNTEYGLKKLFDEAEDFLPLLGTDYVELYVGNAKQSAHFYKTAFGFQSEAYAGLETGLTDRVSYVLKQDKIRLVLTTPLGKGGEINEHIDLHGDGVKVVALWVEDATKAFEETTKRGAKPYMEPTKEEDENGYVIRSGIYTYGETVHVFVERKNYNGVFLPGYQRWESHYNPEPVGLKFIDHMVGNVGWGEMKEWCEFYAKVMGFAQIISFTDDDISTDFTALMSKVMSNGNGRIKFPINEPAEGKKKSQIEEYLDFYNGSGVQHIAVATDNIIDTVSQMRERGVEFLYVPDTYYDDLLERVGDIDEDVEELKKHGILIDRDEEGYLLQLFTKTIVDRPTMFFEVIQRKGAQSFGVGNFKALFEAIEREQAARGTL

CS(=O)(=O)c1ccc(C(=O)C2C(=O)CCCC2=O)c(Cl)c1COCC(F)(F)F [Tembotrione, 2-[2-chloro-4-(methylsulfonyl)-3-[(2,2,2,-tri-fluoroethoxy)methyl]benzoyl]-1,3-cyclo-hexanedione]
Ki [1]: 33 µM
kon ([1]; read-out: k1 (=Kon)): 490 M⁻¹ s⁻¹
koff ([1]; read-out: k−1 (=Koff)): 0.016 s⁻¹
% Elongation & rooting on 10^−6M tembotrione [2]: 0%
% Elongation & rooting on 10^−6M tembotrione [3]: 62%
number of plants in category 0 (looking like the untreated tobacco plants) [4]: 11
number of plants in category 1 (temporarily light bleaching) [4]: 4
number of plants in category 2 (permanent light to strong bleaching) [4]: 10
number of plants in category 3 (like wild type plants submitted to the same treatment) [4]: 4
Class I, number of plants (no injuries) ([5]; line 639): 7
Class II, number of plants (injury: 10-40%) ([5]; line 639): 3
Class III, number of plants (injury: 41-100%) ([5]; line 639): 0
Class I, number of plants (no injuries) ([5]; line 714): 5
Class II, number of plants (injury: 10-40%) ([5]; line 714): 1
Class III, number of plants (injury: 41-100%) ([5]; line 714): 4
Class I, number of plants (no injuries) ([5]; line 717): 4
Class II, number of plants (injury: 10-40%) ([5]; line 717): 2
Class III, number of plants (injury: 41-100%) ([5]; line 717): 4
